Patent publication US20110294873A1, “Gene Transfer Vectors Comprising At Least One Isolated DNA Molecule Having Insulator Or Boundary Properties And Methods To Identify The Same” (UNIVERSITÉ DE LAUSANNE, priority 2008, published 2011)
Entries after “also recorded” stand apart in the source; their conditions may differ.

B1: 12×CTCF: 12 copies of consensus CTCF binding sites with random spacers, 472 bp (nucleic acid)
DNA: GCGATGCCGCCCCCTGGTGGCCAGTAATCGCAAGGCTAAGTAATCACTGCCCCCTGGTGGCCGCCAGTCTGATACGCGTTTTACAACCGCCCCCTGGTGGCCGTGGGAGACATCTAGTGCACGAGAGTGCCCCCTGGTGGCCAAACCGTAGCCTAGGCATATTGTACTGCCCCCTGGTGGCCGGCAATATGGCTAGCGATGACTCGGCGCCCCCTGGTGGCCACTACGTTCTAGTGGCGATGCCGCCCCCTGGTGGCCAGTAATCGCAAGGCTAAGTAATCACTGCCCCCTGGTGGCCGCCAGTCTGATACGCGTTTTACAACCGCCCCCTGGTGGCCGTGGGAGACATCTAGTGCACGAGAGTGCCCCCTGGTGGCCAAACCGTAGCCTAGGCATATTGTACTGCCCCCTGGTGGCCGGCAATATGGCTAGCGATGACTCGGCGCCCCCTGGTGGCCACTACGTTCTAGTG
modifications: Consensus binding sites for CTCF (12copies)
B2: CTCF cons: 6 repeats of the consensus CTCF binding site separated by random linkers (nucleic acid)
DNA: GCGATGCCGCCCCCTGGTGGCCAGTAATCGCAAGGCTAAGTAATCACTGCCCCCTGGTGGCCGCCAGTCTGATACGCGTTTTACAACCGCCCCCTGGTGGCCGTGGGAGACATCTAGTGCACGAGAGTGCCCCCTGGTGGCCAAACCGTAGCCTAGGCATATTGTACTGCCCCCTGGTGGCCGGCAATATGGCTAGCGATGACTCGGCGCCCCCTGGTGGCCACTACGTTCTAGTG
modifications: CTCF consensus binding sites

Experiments:
Assay type in all cases: cell-based, human
[1] = test system: telomeric transgenes (GFP, DsRed) in HeLa cells; assay: Telomeric gene silencing quantitative assay (GFP/DsRed reporters, cytofluorometry); conditions: for transgene expression at telomeric positions: HeLa telomeric clones, agent in culture medium (TSA 1 μM 48 h, NaB 1 mM one week, 5azadC 3 μM 48 h, BrdU 50 μM one week)
Experimental: The minimal CMV promoter and EGFP and DsRed coding sequences (Clontech) were PCR amplified and cloned in both orientations in pBS-SK2 containing telomeric repeats, kindly provided by J. Baur (2). Puromycin resistance gene expressed from the CAG promoter was inserted upstream of DsRed, in a telomere-distal position. Four Gal4 binding site were introduced between EGFP and DsRed expression cassettes at AscI and BamHI restriction sites, yielding pGE1min-Gal and pGE2 min-Gal. Control plasmids were generated by deletion of the telomeric repeats. Plasmids encoding the Gal DNA binding domain alone (pCD-Gal-DBD), or fused to the CTF1 Proline rich (pCMV-Gal-Pro) or to the VP16 (pCMV-Gal-VP16) transcriptional activation domains were as described previously (31). Plasmids encoding Gal-CTF1 fusion mutations were previously described by Alevizopoulos et al. (1995). Plasmids used to generate stable populations expressing Gal4 derivatives were obtained by cloning Gal-fusion genes or the BFP gene in an expression vector carrying the MAR 1-68 and the SV40 promoter (15).
HeLa cells (Clontech) were cultivated at 37° C. and 5% CO2 in DMEM-F12 with 10% fetal bovine serum (Gibco). Histone deacetylation or DNA methylation studies were performed by supplementing the cell culture medium with either 1 μM of Trichostatin A (TSA, Wako) for 48 h, 1 mM of Sodium butyrate (Sigma) for one week, 3 μM of 5-aza-2′-deoxycytidine (5azadC, Sigma) for 48 h, or 50 μM of Bromo-deoxyuridine (BrdU, Applichem) for one week. Transfections were performed using the Fugene 6 transfection reagent following instructions from the manufacturer (Roche). Stable clones were obtained by transfection of linearized plasmids pGEmin-Gal, pGE2 min-Gal or their respective controls. Cells were selected with 2 μg/mL of puromycin for three weeks, and all analyses were performed at least two weeks after the end of selection, to allow for the silencing of the telomeric locus. Transient transfections were performed by co-transfection of a Gal-fusion encoding plasmid and a BFP encoding plasmid at a molar ratio of 9:1. Cytofluorometric assays of the fluorescent reporter proteins were performed 48 h later. Stable populations expressing Gal-DBD/Gal-Pro were obtained by co-transfecting the Gal-fusion expression plasmid, a BFP-encoding plasmid, and a Zeocin resistance plasmid at 45:45:10 weight ratio. Zeocin resistant cells displaying high BFP levels were sorted twice, and the amount of zeocin was increased to 1800 μg/mL with increments of 200 μg/mL, to ensure consistent and elevated levels of fusion protein expression. Fluorescence in situ hybridization (FISH) was performed as described previously (12, 15) using two colors labeling of the reporter plasmids and of the telomeric repeats.
In order to analyze both telomere-insulated and non-insulated genes co-integrated at the same telomeric locus, we generated the reporter plasmids shown in FIG. 17A. Reporter vectors consist of the green fluorescent protein (GFP) and red fluorescent protein (DsRed) coding sequences placed on either side of four DNA binding sites for the yeast GAL4 protein. Each reporter gene was placed under the control of a minimal CMV promoter, in an orientation mediating either convergent or divergent directions of transcription. An antibiotic resistance gene was placed adjacent to DsRed, while telomeric (TTAGGG)n repeats were placed next to the GFP expression cassette. […] These constructs were transfected, and antibiotic-resistant cells having stably integrated the transgenes in their genome were selected and sorted into monoclonal populations. […] Fluorescence in situ hybridization (FISH) analysis indicated a telomeric or subtelomeric transgene position for all retained clones (see FIG. 6 in the supplemental material). […]

[2] = test system: Fr-MuLV LTR enhancer acting on GFP gene in HeLa cells; assay: Quantitative double-reporter (BFP/GFP) enhancer-blocking assay, transient transfection; conditions: HeLa transient, 48 hours, GFP/BFP ratio, compared to full-length cHS4
Text: Panel A is a schematic illustration of the retroviral-mediated integration of a transgene expression cassette into a host cell genome upon viral infection. This cassette contains a transgene under the control of a retroviral LTR and is flanked by a genetic insulator element shielding a cellular gene at the site of integration from LTR-mediated up-regulation. In order to mimic events leading to gene transfer-mediated insertional activation in a plasmid-based assay system (B), plasmid constructs were designed containing a BFP gene under the control of a viral LTR enhancer-promoter and a GFP gene under the control of a minimal CMV promoter (P). Inserting a potent insulator in between the two reporter genes should prevent the expression over-activation of the GFP gene without affecting the BFP expression, as it should shield cellular gene from up-regulation at the site of integration of a viral vector without interfering with transgene expression. In addition, in order to insulate the whole construct itself either from the viral enhancer bi-directional activation in transient transfection (circular form of the plasmid) or from a neighboring cellular enhancer at the site of integration in stable transfection (integrated linearized form of the plasmid), a copy of the cHS4 insulator is inserted at the edge of the reporter gene expression cassettes
The plasmid constructs described in FIG. 26B were obtained as follows. The EGFP gene expressed from a minimal CMV promoter was PCR amplified from a pcDNA3-EGFP plasmid excluding the CMV enhancer. The EBFP gene was PCR amplified from the pEBFP-NI plasmid (Clontech). Both reporters were subcloned in a pBS2-SKP (Stratagene). The Fr-MuLV LTR was inserted upstream from the EBFP gene such that transcription from the LTR is directed towards EBFP, and a copy of the 1.2 kb cHS4 was inserted downstream from the EGFP gene. Insulator sequences were inserted between the Fr-MuLV LTR and the minimal CMV promoter driving GFP expression. The 250 bp cHS4 core was PCR amplified from the full-length cHS4 (GenBank accession number: U78775.2, amplification from position 1 to 250). A series of neutral DNA spacers of various lengths were PCR amplified from the mouse utrophin cDNA (GenBank accession number: BC062163.1, amplifications form position 355 to positions 605 and 1555).
HeLa cells were transfected using FuGENE 6 reagent (Roche Diagnostics) according to the manufacturer's recommendations. Equimolar amounts of the different plasmids were transfected in each experiment (using the pBS2-SKP backbone plasmid as carrier). Circular plasmids were used for transient transfections, while plasmids were linearized before stable transfections. To obtain stable populations, the reporter constructs were co-transfected with a puromycin resistance-encoding plasmid (pPUR, Clontech) with a molar ratio of 10:1 and cells were grown in Dulbecco's modified Eagle medium containing 10% fetal bovine serum and 0.5 μg/mL puromycin (all from GIBCO). Fluorescence analyses were acquired on the FACS Cyan (Dakocytomation) with the settings of 450 V on the SSC channel, 340 V for the GFP and 450 V for the BFP. Data analysis of the double-reporter assay consisted in normalizing the GFP fluorescence to the BFP fluorescence for each cell and averaging these values over the total cell population. FACS analyses were performed 48 hours after transfection for transient expression and after 2 to 3 weeks of selection post-transfection for stable expression. Data processing was performed using the FlowJo software.
Therefore, we designed a two-reporter gene assay whereby the potency of enhancer-blocker insulators can be quantified, and in which polar insulating activities can be distinguished from enhancer inhibition or from global gene silencing effects. […]

[3] = test system: histones H3, H4, H2A.Z on GFP and DsRed sequences in HeLa clones; assay: Chromatin immunoprecipitation of histone modifications on telomeric transgenes; conditions: clone B09
Experimental: Antibodies against acetylated H3 (06-599), acetylated H4 (06-866) and trimethylated H3K9 (07-442) were obtained from Upstate biotechnology. Antibody against H2A.Z (ab4174) was purchased from Abcam. HeLa cells were harvested at a confluence of 90% and cross-linked with 1% formaldehyde for 4 min. After lysis of the nuclei, chromatin was sonicated to obtain fragments of ˜1000 pb and digested with BamHI. The chromatin solution was diluted to a volume of 300 μL in a buffer containing 200 mM HEPES, 2M NaCl, 20 mM EDTA, 0.1% NaDoc, 1% Triton X-100, 1 mg/mL BSA. Chromatin fragments were precleared 30 min with 10 μL rProtein A Sepharose (Amersham Biosciences) and supernatants were incubated at 4° C. overnight with 5 μL of antibody. Immunoprecipitated complexes were incubated with 10 μL rProtein A Sepharose and pellets were washed 3 times with IP buffer (20 mM HEPES, 0.2M NaCl, 2 mM EDTA, 0.1% NaDoc, 1% Triton X-100). Immunoprecipitated complexes were eluted in 100 mM Tris/HCl, 1% SDS and cross-links were reversed at 65° C. for 1 hour. Precipitated DNAs were eluted in 50 μL TE.
Quantitative PCR was performed on 7700 Sequence detector (Applied Biosystems) using SYBR Green reagent (Eurogentec). Chromatin immuno-precipitation samples and chromatin input were diluted 10 fold before analysis. […]

Row | Molecule | transgene expression at telomeric positions [1] | enhancer-blocking (insulator) activity [2] | other results
1 | CCCC(=O)[O-].[Na+] [NaB, Sodium butyrate] | lower unsilencing effects in some clones |  | telomeric gene expression ([1]; clone D17): little effect on telomeric gene expression
2 | One binding site (20 bp element): single CTF/NF1 binding site from adenovirus type II origin of replication, 20 bp (DNA TTGGCAACGTGCCATAAGCA; listed as DNA, chemistry not given here) |  | responsible for most of the effect | enhancer-blocking (insulator) activity ([2]; listed as single binding site of 20 bp): approximately half of the insulating effect seen with the full-length cHS4
3 | CTF1: native transcription factor of the CTF/NF1 family, transiently expressed |  |  | reporter gene activation upon transient CTF1 expression ([1]; reporter with seven CTF/NF1 binding sites, internal chromosomal location): commensurate activation occurred for both reporter genes; boundary effect upon transient CTF1 expression ([1]; reporter with seven CTF/NF1 binding sites, telomeric transgenes): boundary effect was observed
4 | CC(/C=C/C(=O)NO)=C\[C@@H](C)C(=O)c1ccc(N(C)C)cc1 [TSA, Trichostatin A] | strongly increase transgene expression |  | H3K9Me3 on DsRed and GFP sequences (ChIP) [3]: increase; H3 and H4 acetylation on DsRed and GFP sequences (ChIP) [3]: increase of the acetylation of both DsRed and GFP
5 | O=c1[nH]c(=O)n([C@H]2C[C@H](O)[C@@H](CO)O2)cc1Br [BrdU, Bromo-deoxyuridine] | increase in expression of the reporter genes, but to a lesser extent than that noted with TSA |  | 
6 | Nc1ncn([C@H]2C[C@H](O)[C@@H](CO)O2)c(=O)n1 [5azadC, 5-aza-2′-deoxycytidine] | little effect on transgene expression |  | 
7 | B1 |  | as potent as the complete 1.2 kb cHS4 element; also recorded: comparable to the one of the full length cHS4; also recorded: fully reproduced the insulation effect; also recorded: able to reconstitute the enhancer blocking activity mediated by the full-length 1.2 kb cHS4 | 
8 | B2 |  | already showed significant activity | enhancer-blocking (insulator) activity ([2]; listed as Consensus binding sites for CTCF): able to show the same activity, with no significant improvement
